Results: ChEMBL document CHEMBL1201862, “PubChem BioAssay data set” (2004)
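Cultured in 96-well plates, cells were exposed to test compound for 48 hours across five concentrations. Here, GI50 denotes the concentration required for 50% inhibition of growth.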 The source made the active and inactive calls. No stated cut-off is given here; in the data, active = GI50 up to about 1.1 µM and inactive = higher.

Key:
Assay in all cases: inhibition of tumour cell growth, NCI panel, 48 h
SN12C = test system: SN12C
RXF 393 = test system: RXF 393
CCRF-CEM = test system: CCRF-CEM
DU-145 = test system: DU-145
K562 = test system: K562
SF-539 = test system: SF-539
SK-MEL-5 = test system: SK-MEL-5
HCT-15 = test system: HCT-15
HCT-116 = test system: HCT-116
HL-60 = test system: HL-60
MOLT-4 = test system: MOLT-4
NCI-H23 = test system: NCI-H23
SF-268 = test system: SF-268
IGROV-1 = test system: IGROV-1
U-251 = test system: U-251
NCI-H460 = test system: NCI-H460
Hs-578T = test system: Hs-578T
NCI/ADR-RES = test system: NCI/ADR-RES
A549 = test system: A549
OVCAR-4 = test system: OVCAR-4

Row | SMILES | GI50 (SN12C) | GI50 (RXF 393) | GI50 (CCRF-CEM) | GI50 (DU-145) | GI50 (K562) | GI50 (SF-539) | GI50 (SK-MEL-5) | GI50 (HCT-15) [µM] | GI50 (HCT-116) | GI50 (HL-60) | GI50 (MOLT-4) | GI50 (NCI-H23) | GI50 (SF-268) | GI50 (IGROV-1) | GI50 (U-251) | GI50 (NCI-H460) | GI50 (Hs-578T) | GI50 (NCI/ADR-RES) | GI50 (A549) | GI50 (OVCAR-4)
1 | CCSc1nc(N)c2c(-c3ccc(OC)c(OC)c3)c3c(nc2n1)CCCC3 | > 100 µM (inactive) | > 100 µM (inactive) | > 100 µM (inactive) | > 100 µM (inactive) | > 100 µM (inactive) | > 100 µM (inactive) | > 100 µM (inactive) | > 100 | > 100 µM (inactive) | > 100 µM (inactive) | > 100 µM (inactive) | > 100 µM (inactive) | > 100 µM (inactive) | > 100 µM (inactive) | > 100 µM (inactive) | > 100 µM (inactive) | > 100 µM (inactive) | > 100 µM (inactive) | > 100 µM (inactive) | > 100 µM (inactive)
2 | CCOC(=O)C[C@@H]1C2(C=C[C@@]13CO3)OCC(C)(C)CO2 | > 100 µM (inactive) | > 100 µM (inactive) | > 100 µM (inactive) | > 100 µM (inactive) | > 100 µM (inactive) | > 100 µM (inactive) | > 100 µM (inactive) | > 100 | > 100 µM (inactive) | > 100 µM (inactive) | > 100 µM (inactive) | > 100 µM (inactive) | > 100 µM (inactive) | > 100 µM (inactive) | > 100 µM (inactive) | > 100 µM (inactive) | > 100 µM (inactive) | > 100 µM (inactive) | > 100 µM (inactive) | 8.2 µM (inactive)
3 | O=Cc1cn(CCCCCCCCn2cc(C=O)c3ccccc32)c2ccccc12 | > 10 µM (inactive) | > 10 µM (inactive) | > 10 µM (inactive) | 8.05 µM (inactive) | 3.27 µM (inactive) | > 10 µM (inactive) | 4.17 µM (inactive) | > 10 | 7.4 µM (inactive) | 5.46 µM (inactive) | 6.37 µM (inactive) | 2.19 µM (inactive) | > 10 µM (inactive) | > 10 µM (inactive) | > 10 µM (inactive) | 0.561 µM (active) | 6.49 µM (inactive) | 5.15 µM (inactive) | 6.59 µM (inactive) | > 10 µM (inactive)
